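Cultured in 96-well plates, cells were exposed to test compound for 48 hours across five concentrations. Definition used: TGI = concentration required for complete inhibition of growth.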
Each molecule was assayed on SK-MEL-2 melanoma (assay: inhibition of tumour cell growth, NCI panel, 48 h).

Row | Structure (SMILES) | TGI
1 | CCSc1n/c(=C\c2ccco2)c2nncn12 | > 100 µM
2 | O=C1CSC(c2ccc([N+](=O)[O-])cc2)N1c1ccc(-n2c(-c3ccccc3)nc3ccccc3c2=O)cc1 (stereo not given) | > 100 µM
3 | COc1cc(OC)nc(-n2c(N)c(C#N)c3ccc([N+](=O)[O-])cc3c2=O)n1 | > 100 µM
4 | O=C(CCCN1CCC2(CC1)CC(=O)N(N1CCCCCC1)C2=O)c1ccccc1 | > 100 µM
5 | COc1cc(CO)c(CC(=O)NCCCc2ccccc2)cc1OC | > 100 µM
6 | CC(C)(C)OC(=O)N1CCC(C(=O)O)CC1 | > 100 µM
7 | CCCCCCC(=O)O[C@H]1CC[C@H]2[C@@H]3CCC4C/C(=N/NC(=O)c5cccc6c(=O)c7ccccc7[nH]c56)C=C(C)[C@]4(C)[C@H]3CC[C@]12C (stereo not given in full) | > 25 µM
8 | COc1ccc(CNC(=O)NCn2cc(-c3ccccc3)nn2)cc1 | > 100 µM

Each molecule was assayed on HCT-15 colon (assay: inhibition of tumour cell growth, NCI panel, 48 h).

Row | Structure (SMILES) | TGI
9 | CCOC(=O)c1nc2ccccc2nc1NCc1cc(OC)c(OC)c(OC)c1 | > 100 µM
10 | CCSc1n/c(=C\c2ccco2)c2nncn12 | > 100 µM
11 | O=C1CSC(c2ccc([N+](=O)[O-])cc2)N1c1ccc(-n2c(-c3ccccc3)nc3ccccc3c2=O)cc1 (stereo not given) | > 100 µM
12 | COc1cc(OC)nc(-n2c(N)c(C#N)c3ccc([N+](=O)[O-])cc3c2=O)n1 | > 100 µM
13 | O=C(CCCN1CCC2(CC1)CC(=O)N(N1CCCCCC1)C2=O)c1ccccc1 | > 100 µM
14 | COc1ccc(-n2cnc3c2NC(C)(C)N=C3C(N)=O)c(OC)c1 | > 100 µM
15 | COc1cc(CO)c(CC(=O)NCCCc2ccccc2)cc1OC | > 100 µM
16 | CC(C)(C)OC(=O)N1CCC(C(=O)O)CC1 | > 100 µM
17 | CCCCCCC(=O)O[C@H]1CC[C@H]2[C@@H]3CCC4C/C(=N/NC(=O)c5cccc6c(=O)c7ccccc7[nH]c56)C=C(C)[C@]4(C)[C@H]3CC[C@]12C (stereo not given in full) | > 25 µM
18 | COc1ccc(CNC(=O)NCn2cc(-c3ccccc3)nn2)cc1 | > 100 µM

What follows are molecules tested on RXF 393 renal (assay: inhibition of tumour cell growth, NCI panel, 48 h).

Row | Structure (SMILES) | TGI
19 | CCOC(=O)c1nc2ccccc2nc1NCc1cc(OC)c(OC)c(OC)c1 | > 100 µM
20 | O=C(CCCN1CCC2(CC1)CC(=O)N(N1CCCCCC1)C2=O)c1ccccc1 | > 100 µM
21 | COc1ccc(-n2cnc3c2NC(C)(C)N=C3C(N)=O)c(OC)c1 | > 100 µM
22 | CC(=O)OCC1OC(c2nc3ccccc3s2)=CC(OC(C)=O)C1OC(C)=O (stereo not given) | > 100 µM
23 | Cc1cn(C2CC(O)C(COC(=O)NCCC(F)(F)C(F)(F)C(F)(F)C(F)(F)F)O2)c(=O)[nH]c1=O (stereo not given) | > 100 µM

Each molecule was assayed on OVCAR-5 ovarian (assay: inhibition of tumour cell growth, NCI panel, 48 h).

Row | Structure (SMILES) | TGI
24 | CCOC(=O)c1nc2ccccc2nc1NCc1cc(OC)c(OC)c(OC)c1 | > 100 µM
25 | CCSc1n/c(=C\c2ccco2)c2nncn12 | > 100 µM
26 | COc1cc(OC)nc(-n2c(N)c(C#N)c3ccc([N+](=O)[O-])cc3c2=O)n1 | > 100 µM
27 | O=C(CCCN1CCC2(CC1)CC(=O)N(N1CCCCCC1)C2=O)c1ccccc1 | > 100 µM
28 | COc1ccc(-n2cnc3c2NC(C)(C)N=C3C(N)=O)c(OC)c1 | > 100 µM
29 | COc1cc(CO)c(CC(=O)NCCCc2ccccc2)cc1OC | > 100 µM
30 | CC(=O)OCC1OC(c2nc3ccccc3s2)=CC(OC(C)=O)C1OC(C)=O (stereo not given) | > 100 µM
31 | Cc1cn(C2CC(O)C(COC(=O)NCCC(F)(F)C(F)(F)C(F)(F)C(F)(F)F)O2)c(=O)[nH]c1=O (stereo not given) | > 100 µM
32 | CC(C)(C)OC(=O)N1CCC(C(=O)O)CC1 | > 100 µM
33 | CCCCCCC(=O)O[C@H]1CC[C@H]2[C@@H]3CCC4C/C(=N/NC(=O)c5cccc6c(=O)c7ccccc7[nH]c56)C=C(C)[C@]4(C)[C@H]3CC[C@]12C (stereo not given in full) | > 25 µM
34 | COc1ccc(CNC(=O)NCn2cc(-c3ccccc3)nn2)cc1 | > 100 µM

Each molecule was assayed on NCI-H460 lung (assay: inhibition of tumour cell growth, NCI panel, 48 h).

Row | Structure (SMILES) | TGI
35 | CCOC(=O)c1nc2ccccc2nc1NCc1cc(OC)c(OC)c(OC)c1 | > 100 µM
36 | O=C1CSC(c2ccc([N+](=O)[O-])cc2)N1c1ccc(-n2c(-c3ccccc3)nc3ccccc3c2=O)cc1 (stereo not given) | > 100 µM
37 | COc1cc(OC)nc(-n2c(N)c(C#N)c3ccc([N+](=O)[O-])cc3c2=O)n1 | > 100 µM
38 | COc1ccc(-n2cnc3c2NC(C)(C)N=C3C(N)=O)c(OC)c1 | > 100 µM
39 | COc1cc(CO)c(CC(=O)NCCCc2ccccc2)cc1OC | > 100 µM
40 | CC(=O)OCC1OC(c2nc3ccccc3s2)=CC(OC(C)=O)C1OC(C)=O (stereo not given) | > 100 µM
41 | Cc1cn(C2CC(O)C(COC(=O)NCCC(F)(F)C(F)(F)C(F)(F)C(F)(F)F)O2)c(=O)[nH]c1=O (stereo not given) | > 100 µM
42 | CC(C)(C)OC(=O)N1CCC(C(=O)O)CC1 | > 100 µM
43 | COc1ccc(CNC(=O)NCn2cc(-c3ccccc3)nn2)cc1 | > 100 µM

What follows are molecules tested on OVCAR-4 ovarian (assay: inhibition of tumour cell growth, NCI panel, 48 h).

Row | Structure (SMILES) | TGI
44 | CCOC(=O)c1nc2ccccc2nc1NCc1cc(OC)c(OC)c(OC)c1 | > 100 µM
45 | O=C1CSC(c2ccc([N+](=O)[O-])cc2)N1c1ccc(-n2c(-c3ccccc3)nc3ccccc3c2=O)cc1 (stereo not given) | 95.7 µM
46 | COc1cc(OC)nc(-n2c(N)c(C#N)c3ccc([N+](=O)[O-])cc3c2=O)n1 | > 100 µM
47 | O=C(CCCN1CCC2(CC1)CC(=O)N(N1CCCCCC1)C2=O)c1ccccc1 | > 100 µM
48 | COc1ccc(-n2cnc3c2NC(C)(C)N=C3C(N)=O)c(OC)c1 | > 100 µM
49 | COc1cc(CO)c(CC(=O)NCCCc2ccccc2)cc1OC | > 100 µM
50 | CC(=O)OCC1OC(c2nc3ccccc3s2)=CC(OC(C)=O)C1OC(C)=O (stereo not given) | > 100 µM
51 | Cc1cn(C2CC(O)C(COC(=O)NCCC(F)(F)C(F)(F)C(F)(F)C(F)(F)F)O2)c(=O)[nH]c1=O (stereo not given) | > 100 µM
52 | CC(C)(C)OC(=O)N1CCC(C(=O)O)CC1 | > 100 µM
53 | CCCCCCC(=O)O[C@H]1CC[C@H]2[C@@H]3CCC4C/C(=N/NC(=O)c5cccc6c(=O)c7ccccc7[nH]c56)C=C(C)[C@]4(C)[C@H]3CC[C@]12C (stereo not given in full) | > 25 µM
54 | COc1ccc(CNC(=O)NCn2cc(-c3ccccc3)nn2)cc1 | > 100 µM

These molecules were tested on MDA-MB-231 breast (assay: inhibition of tumour cell growth, NCI panel, 48 h).

Row | Structure (SMILES) | TGI
55 | CCOC(=O)c1nc2ccccc2nc1NCc1cc(OC)c(OC)c(OC)c1 | > 100 µM
56 | CCSc1n/c(=C\c2ccco2)c2nncn12 | > 100 µM
57 | O=C1CSC(c2ccc([N+](=O)[O-])cc2)N1c1ccc(-n2c(-c3ccccc3)nc3ccccc3c2=O)cc1 (stereo not given) | > 100 µM
58 | COc1cc(OC)nc(-n2c(N)c(C#N)c3ccc([N+](=O)[O-])cc3c2=O)n1 | > 100 µM
59 | O=C(CCCN1CCC2(CC1)CC(=O)N(N1CCCCCC1)C2=O)c1ccccc1 | > 100 µM
60 | COc1ccc(-n2cnc3c2NC(C)(C)N=C3C(N)=O)c(OC)c1 | > 100 µM
61 | COc1cc(CO)c(CC(=O)NCCCc2ccccc2)cc1OC | > 100 µM
62 | CC(=O)OCC1OC(c2nc3ccccc3s2)=CC(OC(C)=O)C1OC(C)=O (stereo not given) | > 100 µM
63 | Cc1cn(C2CC(O)C(COC(=O)NCCC(F)(F)C(F)(F)C(F)(F)C(F)(F)F)O2)c(=O)[nH]c1=O (stereo not given) | > 100 µM
64 | CC(C)(C)OC(=O)N1CCC(C(=O)O)CC1 | > 100 µM
65 | CCCCCCC(=O)O[C@H]1CC[C@H]2[C@@H]3CCC4C/C(=N/NC(=O)c5cccc6c(=O)c7ccccc7[nH]c56)C=C(C)[C@]4(C)[C@H]3CC[C@]12C (stereo not given in full) | > 25 µM
66 | COc1ccc(CNC(=O)NCn2cc(-c3ccccc3)nn2)cc1 | > 100 µM

What follows are molecules tested on PC-3 prostate (assay: inhibition of tumour cell growth, NCI panel, 48 h).

Row | Structure (SMILES) | TGI
67 | CCOC(=O)c1nc2ccccc2nc1NCc1cc(OC)c(OC)c(OC)c1 | > 100 µM
68 | CCSc1n/c(=C\c2ccco2)c2nncn12 | > 100 µM
69 | O=C1CSC(c2ccc([N+](=O)[O-])cc2)N1c1ccc(-n2c(-c3ccccc3)nc3ccccc3c2=O)cc1 (stereo not given) | > 100 µM
70 | COc1cc(OC)nc(-n2c(N)c(C#N)c3ccc([N+](=O)[O-])cc3c2=O)n1 | > 100 µM
71 | O=C(CCCN1CCC2(CC1)CC(=O)N(N1CCCCCC1)C2=O)c1ccccc1 | > 100 µM
72 | COc1ccc(-n2cnc3c2NC(C)(C)N=C3C(N)=O)c(OC)c1 | > 100 µM
73 | COc1cc(CO)c(CC(=O)NCCCc2ccccc2)cc1OC | > 100 µM
74 | CC(=O)OCC1OC(c2nc3ccccc3s2)=CC(OC(C)=O)C1OC(C)=O (stereo not given) | > 100 µM
75 | Cc1cn(C2CC(O)C(COC(=O)NCCC(F)(F)C(F)(F)C(F)(F)C(F)(F)F)O2)c(=O)[nH]c1=O (stereo not given) | > 100 µM
76 | CC(C)(C)OC(=O)N1CCC(C(=O)O)CC1 | > 100 µM
77 | CCCCCCC(=O)O[C@H]1CC[C@H]2[C@@H]3CCC4C/C(=N/NC(=O)c5cccc6c(=O)c7ccccc7[nH]c56)C=C(C)[C@]4(C)[C@H]3CC[C@]12C (stereo not given in full) | > 25 µM
78 | COc1ccc(CNC(=O)NCn2cc(-c3ccccc3)nn2)cc1 | > 100 µM

Each molecule was assayed on M14 melanoma (assay: inhibition of tumour cell growth, NCI panel, 48 h).

Row | Structure (SMILES) | TGI
79 | CCSc1n/c(=C\c2ccco2)c2nncn12 | > 100 µM
80 | O=C1CSC(c2ccc([N+](=O)[O-])cc2)N1c1ccc(-n2c(-c3ccccc3)nc3ccccc3c2=O)cc1 (stereo not given) | > 100 µM
81 | COc1cc(OC)nc(-n2c(N)c(C#N)c3ccc([N+](=O)[O-])cc3c2=O)n1 | > 100 µM
82 | O=C(CCCN1CCC2(CC1)CC(=O)N(N1CCCCCC1)C2=O)c1ccccc1 | > 100 µM
83 | COc1ccc(-n2cnc3c2NC(C)(C)N=C3C(N)=O)c(OC)c1 | > 100 µM
84 | COc1cc(CO)c(CC(=O)NCCCc2ccccc2)cc1OC | > 100 µM
85 | Cc1cn(C2CC(O)C(COC(=O)NCCC(F)(F)C(F)(F)C(F)(F)C(F)(F)F)O2)c(=O)[nH]c1=O (stereo not given) | > 100 µM
86 | CC(C)(C)OC(=O)N1CCC(C(=O)O)CC1 | > 100 µM
87 | CCCCCCC(=O)O[C@H]1CC[C@H]2[C@@H]3CCC4C/C(=N/NC(=O)c5cccc6c(=O)c7ccccc7[nH]c56)C=C(C)[C@]4(C)[C@H]3CC[C@]12C (stereo not given in full) | > 25 µM
88 | COc1ccc(CNC(=O)NCn2cc(-c3ccccc3)nn2)cc1 | > 100 µM

Each molecule was assayed on UACC-257 melanoma (assay: inhibition of tumour cell growth, NCI panel, 48 h).

Row | Structure (SMILES) | TGI
89 | CCOC(=O)c1nc2ccccc2nc1NCc1cc(OC)c(OC)c(OC)c1 | > 100 µM
90 | O=C1CSC(c2ccc([N+](=O)[O-])cc2)N1c1ccc(-n2c(-c3ccccc3)nc3ccccc3c2=O)cc1 (stereo not given) | > 100 µM

Reference: PubChem BioAssay (NCI)
